Like-named read-outs stand apart in the source and are kept apart here.
Legend:
WRN C727 [1] = molecular target: T1, WRN C727 (Homo sapiens, UniProt Q14191); assay: Target engagement, in vitro (lysate), OCI-AML2; assay type: binding; conditions: read-out: OCI-AML2 WRN C727 TE50 in vitro (lysate)
T1 construct: endogenous in cells; host or cells: OCI-AML2
Outline: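 OCI-AML2 intact cells or lysates dosed with compound, then a cysteine-reactive probe; after trypsin digestion, probe-labelled peptides were streptavidin-enriched and quantified by nano-LC parallel reaction monitoring MS. Engagement (%) relative to DMSO controls.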

SW480 cells = assay: Cell growth assay (CellTiter-Glo 2.0), SW480 MSS cell line; conditions: Homo sapiens, SW480, 120 h, read-out: Cell Growth Inhibition GI50 SW480
[2] = molecular target: hWRN(519-1227)_C-H3CV-GFP-10His (Homo sapiens, UniProt Q14191); assay: Helicase Assay for WRN Inhibition (ATP-dependent, fluorescence based)
WRN C727 [3] = molecular target: T1, WRN C727; assay: Target engagement, in situ (cell), OCI-AML2; assay type: cell-based; conditions: OCI-AML2 cells, read-out: OCI-AML2 WRN C727 TE50 in situ (cell)
Protocol: Cells or cell lysates were treated with a dose response of compound followed by probe treatment, which labels solvent exposed cysteines. Proteins were enzymatically digested with trypsin and probe-labelled peptides were enriched with streptavidin. Isolated peptides were then separated using reversed-phase liquid chromatography on a C18 column (Dionex Ultimated 3000 nano-LC, Thermo). Peptides were analyzed by parallel reaction monitoring mass spectrometry (Exploris 120, Thermo).
Target engagement (%) is calculated relative to DMSO treated control samples.

HCT 116 cells = assay: Cell growth assay (CellTiter-Glo 2.0), HCT 116 MSI-H cell line; conditions: Homo sapiens, HCT-116, 120 h, read-out: Cell Growth Inhibition GI50 HCT-116
[4] = WRN Helicase IC50, 30 min preincubation with ATP, 30 min reaction

T1 sequence (Q14191 whole entry): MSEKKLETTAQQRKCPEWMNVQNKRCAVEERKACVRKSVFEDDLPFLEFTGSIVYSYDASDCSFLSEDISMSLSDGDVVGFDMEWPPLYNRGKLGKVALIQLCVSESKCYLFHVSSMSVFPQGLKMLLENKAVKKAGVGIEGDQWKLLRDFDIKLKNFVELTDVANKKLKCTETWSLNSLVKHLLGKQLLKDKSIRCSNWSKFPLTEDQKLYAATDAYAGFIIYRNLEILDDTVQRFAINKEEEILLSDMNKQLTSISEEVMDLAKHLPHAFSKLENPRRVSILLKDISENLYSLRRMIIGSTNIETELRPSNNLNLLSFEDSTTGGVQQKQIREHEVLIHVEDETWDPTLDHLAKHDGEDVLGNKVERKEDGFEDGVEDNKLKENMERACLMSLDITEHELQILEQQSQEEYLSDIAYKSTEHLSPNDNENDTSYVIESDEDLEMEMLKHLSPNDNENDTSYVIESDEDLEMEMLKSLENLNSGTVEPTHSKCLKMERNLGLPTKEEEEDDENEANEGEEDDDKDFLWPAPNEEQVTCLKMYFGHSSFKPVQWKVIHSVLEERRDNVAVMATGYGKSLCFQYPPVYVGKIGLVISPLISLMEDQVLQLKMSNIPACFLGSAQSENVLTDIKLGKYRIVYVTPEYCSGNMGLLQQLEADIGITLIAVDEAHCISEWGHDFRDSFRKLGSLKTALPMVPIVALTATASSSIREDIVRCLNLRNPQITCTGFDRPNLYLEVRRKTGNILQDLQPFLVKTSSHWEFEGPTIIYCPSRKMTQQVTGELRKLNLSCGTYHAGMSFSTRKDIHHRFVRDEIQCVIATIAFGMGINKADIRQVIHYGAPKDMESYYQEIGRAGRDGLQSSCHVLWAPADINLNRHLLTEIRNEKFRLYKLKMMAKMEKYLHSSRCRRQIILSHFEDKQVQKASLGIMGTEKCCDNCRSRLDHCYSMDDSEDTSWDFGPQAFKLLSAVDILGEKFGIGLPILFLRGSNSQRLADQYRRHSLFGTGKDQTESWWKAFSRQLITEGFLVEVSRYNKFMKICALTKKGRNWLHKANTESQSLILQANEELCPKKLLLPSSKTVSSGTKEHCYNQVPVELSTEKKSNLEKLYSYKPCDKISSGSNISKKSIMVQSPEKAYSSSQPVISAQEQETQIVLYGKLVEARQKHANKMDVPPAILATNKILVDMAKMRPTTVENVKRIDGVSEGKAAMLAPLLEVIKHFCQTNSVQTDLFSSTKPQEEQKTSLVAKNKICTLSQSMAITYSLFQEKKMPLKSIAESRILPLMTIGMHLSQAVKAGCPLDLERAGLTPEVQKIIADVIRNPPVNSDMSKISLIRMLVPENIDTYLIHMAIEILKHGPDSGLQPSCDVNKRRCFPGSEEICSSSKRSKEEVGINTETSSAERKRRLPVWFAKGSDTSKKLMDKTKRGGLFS
Sequence of hWRN(519-1227)_C-H3CV-GFP-10His (Q14191 519-1227): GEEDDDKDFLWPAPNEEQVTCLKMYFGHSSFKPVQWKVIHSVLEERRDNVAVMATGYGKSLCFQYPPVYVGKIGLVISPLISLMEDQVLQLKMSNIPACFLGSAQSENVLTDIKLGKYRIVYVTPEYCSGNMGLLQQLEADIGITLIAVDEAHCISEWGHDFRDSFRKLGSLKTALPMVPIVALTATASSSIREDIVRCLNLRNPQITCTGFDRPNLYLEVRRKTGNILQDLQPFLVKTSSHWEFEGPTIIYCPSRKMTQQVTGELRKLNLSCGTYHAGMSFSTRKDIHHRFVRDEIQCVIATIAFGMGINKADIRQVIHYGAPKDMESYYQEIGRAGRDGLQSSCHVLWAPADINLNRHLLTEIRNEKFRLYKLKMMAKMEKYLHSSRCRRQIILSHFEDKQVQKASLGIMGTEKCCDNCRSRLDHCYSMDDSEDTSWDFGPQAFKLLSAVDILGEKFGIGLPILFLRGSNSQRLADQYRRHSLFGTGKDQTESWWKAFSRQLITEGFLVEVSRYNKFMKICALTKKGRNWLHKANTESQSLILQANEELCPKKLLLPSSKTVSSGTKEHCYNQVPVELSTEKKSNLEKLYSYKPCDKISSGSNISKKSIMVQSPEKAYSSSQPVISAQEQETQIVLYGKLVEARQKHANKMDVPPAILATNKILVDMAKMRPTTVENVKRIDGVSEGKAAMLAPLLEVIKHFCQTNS

Compound	IC50 (WRN C727 [1]) [nM]	GI50 (SW480 cells) [nM]	IC50 [2, 4] [nM]	IC50 (WRN C727 [3]) [nM]	GI50 (HCT 116 cells) [nM]	IC50 [2] [nM]
CC(C)(C)c1ncc(C(=O)N[C@H](/C=C/S(C)(=O)=O)C2CC2)c(Oc2ccccc2)n1 [Example 58, (S,E)-2-(tert-butyl)-N-(1-cyclopropyl-3-(methylsulfonyl)allyl)-4-phenoxypyrimidine-5-carboxamide]	448	8730	57.7	16	23.5	
C[C@@H](/C=C/S(C)(=O)=O)NC(=O)c1cnc(C2CCCCC2)nc1Oc1ccccc1 [Example 77, (S,E)-2-cyclohexyl-N-(4-(methylsulfonyl)but-3-en-2-yl)-4-phenoxypyrimidine-5-carboxamide]	26000	> 5000	1500	1140	430	
CS(=O)(=O)/C=C/[C@@H](NC(=O)c1cnc(C(F)(F)C(F)(F)F)nc1Oc1ccccc1)C1CC1 [Example 84, (S,E)-N-(1-cyclopropyl-3-(methylsulfonyl)allyl)-2-(perfluoroethyl)-4-phenoxypyrimidine-5-carboxamide]	200	8780	80	16	51.1	
CS(=O)(=O)/C=C/[C@@H](NC(=O)c1cnc(C2(F)CC2)nc1Oc1ccccc1)C1CC1 [Example 100, (S,E)-N-(1-cyclopropyl-3-(methylsulfonyl)allyl)-2-(1-fluorocyclopropyl)-4-phenoxypyrimidine-5-carboxamide]	853	24400	174	150	66	
CS(=O)(=O)/C=C/[C@@H](NC(=O)c1cnc(C2(C(F)(F)F)CC2)nc1Oc1ccccc1)C1CC1 [Example 102, (S,E)-N-(1-cyclopropyl-3-(methylsulfonyl)allyl)-4-phenoxy-2-(1-(trifluoromethyl)cyclopropyl)pyrimidine-5-carboxamide]	530	4140	130	160	81.8	
C[C@@H](/C=C/S(C)(=O)=O)NC(=O)c1cnc(C2CCCC2)nc1Oc1cc(F)cc(F)c1 [Example 116, (S,E)-2-cyclopentyl-4-(3,5-difluorophenoxy)-N-(4-(methylsulfonyl)but-3-en-2-yl)pyrimidine-5-carboxamide]	22300	> 10000	2200	1500	2500	
C[C@@H](/C=C/S(C)(=O)=O)NC(=O)c1cnc(C2CC2)nc1OC1CCCC1 [Example 144, (S,E)-4-(cyclopentyloxy)-2-cyclopropyl-N-(4-(methylsulfonyl)but-3-en-2-yl)pyrimidine-5-carboxamide]	20000	> 16000	1890	800	693	
C[C@@H](/C=C/S(C)(=O)=O)NC(=O)c1cnc(C(C)(C)C)nc1OC1CCCC1 [Example 153, (S,E)-2-(tert-butyl)-4-(cyclopentyloxy)-N-(4-(methylsulfonyl)but-3-en-2-yl)pyrimidine-5-carboxamide]	1880	> 10000	500	160	165	
C[C@@H](/C=C/S(C)(=O)=O)NC(=O)c1cnc(C(C)(C)C)nc1OC1CCCCC1 [Example 154, (S,E)-2-(tert-butyl)-4-(cyclohexyloxy)-N-(4-(methylsulfonyl)but-3-en-2-yl)pyrimidine-5-carboxamide]	1330	8970	330	140	222	
C[C@@H](/C=C/S(C)(=O)=O)NC(=O)c1cc(C#N)c(C2CCCC2)nc1Oc1ccccc1 [Example 163, (S,E)-5-cyano-6-cyclopentyl-N-(4-(methylsulfonyl)but-3-en-2-yl)-2-phenoxynicotinamide]	1760	3900	740	560	400	
C[C@@H](/C=C/S(C)(=O)=O)NC(=O)c1cnc(NC2CCCC2)nc1Oc1ccccc1 [Example 164, (S,E)-2-(cyclopentylamino)-N-(4-(methylsulfonyl)but-3-en-2-yl)-4-phenoxypyrimidine-5-carboxamide]	> 100000	> 10000	12000	21400	7100	
CC(C)(C)c1ncc(C(=O)N2CC(=CS(C)(=O)=O)C2)c(Oc2ccccc2)n1 [Example 189, (2-(tert-butyl)-4-phenoxypyrimidin-5-yl)(3-((methylsulfonyl)methylene)azetidin-1-yl)methanone]	640	> 13800		100	102	241
CS(=O)(=O)/C=C/[C@@H](NC(=O)c1cnc(C(F)(F)C2CC2)nc1Oc1ccccc1)C1CC1 [Example 224, (S,E)-N-(1-cyclopropyl-3-(methylsulfonyl)allyl)-2-(cyclopropyldifluoromethyl)-4-phenoxypyrimidine-5-carboxamide]	93.2	13600	48.3	8.75	17	
CS(=O)(=O)/C=C/[C@@H](NC(=O)c1cnc(C(F)(F)C2CC2)nc1Oc1ccccc1)C1CCC1 [Example 225, (S,E)-N-(1-cyclobutyl-3-(methylsulfonyl)allyl)-2-(cyclopropyldifluoromethyl)-4-phenoxypyrimidine-5-carboxamide]	119	18000	54.4	16	17	
N#CC=C1CN(C(=O)c2cnc(C3CC3)nc2Oc2ccccc2)C1 [Example 264, 2-(1-(2-cyclopropyl-4-phenoxypyrimidine-5-carbonyl)azetidin-3-ylidene)acetonitrile]	16300	8100		6650	3800	2300
C=C(C#N)CNC(=O)c1cnc(C(F)(F)C2CC2)nc1Oc1ccccc1 [Example 272, N-(2-cyanoallyl)-2-(cyclopropyldifluoromethyl)-4-phenoxypyrimidine-5-carboxamide]	8280	7800		3960	210	380

From US20250188040A1, “PHARMACEUTICAL COMPOSITIONS COMPRISING WRN HELICASE INHIBITORS” (Vividion Therapeutics, Inc., priority 2022, published 2025)
